We go through one compound from EP4670722A1, “PROPHYLACTIC OR AMELIORATING AGENT FOR CELL AGING” (Kyowa Pharma Chemical Co., Ltd., priority 2023, dated 2024).

The test system of one assay is laminin. The experiment in a line: Laminin secretion amount (ELISA) of tunicamycin-treated dermal fibroblasts. The following applies: NB1RGB PDL of 30 or less, tunicamycin 0.3 µg/mL, 50 µg/mL to 200 µg/mL, 24 hours; recovery increased as content increased; Fig. 8. In kind it is cell-based, Human. Here is the method: Human normal dermal fibroblasts (NB1RGB) with a PDL of 30 or less were cultured using DMEM containing 10% FBS. The cultured cells were collected by trypsin treatment. The collected cells were seeded in a 24-well plate, and when they reached 100% confluence, tunicamycin at 0.3 µg/mL was added, and the culture supernatant was collected after 24 hours. A group was also prepared in which FBS-free DMEM medium containing the test sample (2'-fucosyllactose) at 50 µg/mL, 100 µg/mL, or 200 µg/mL was added simultaneously with tunicamycin, and the culture supernatant was collected after 24 hours. The culture supernatant was centrifuged, and the resulting supernatant was used as a sample. […] This total cell protein concentration was measured by the Bradford assay.
Human normal dermal fibroblasts with a PDL of 30 or less were cultured in the same manner as in Example 7-1, except that tunicamycin and the test sample were not added, and the culture supernatant was collected. […] This total cell protein concentration was measured by the Bradford assay.
An Enzyme-Linked Immunosorbent Assay (ELISA) method was performed using an antibody against laminin to measure the amount of laminin in the samples. […] After stopping the reaction, the absorbance at a measurement wavelength of 450 nm was measured using a microplate reader. […]

In the next assay the test system is GLS1. The experiment in a line: GLS1 expression analysis (Western blot) in HEK293. Type of assay: cell-based. The following applies: human embryonic kidney cells (HEK293), at least 200 µg/mL or more, 24 hours; effect increased from 200 to 1000 µg/mL; Fig. 12. The procedure: Human embryonic kidney cells (HEK293) were cultured in DMEM containing 10% FBS. The cultured cells were collected by trypsin treatment. The collected cells were seeded in a 6-well plate, and when they reached 100% confluence, DMEM containing 2'-FL as a test sample at 50 µg/mL, 200 µg/mL, or 1000 µg/mL, and lactose at 50 µg/mL or 200 µg/mL was added, and cultured for 24 hours in a 37°C, 5% CO2 incubator. The culture supernatant was removed, the cells were washed twice with phosphate-buffered saline (PBS), and 0.20 mL of RIPA buffer (manufactured by Nacalai Tesque, Inc.) was added to extract total protein. Protein in each protein extract was quantified by the Bradford assay.
Protein extracts were collected in the same manner as in [Example 10-1 A. Human embryonic kidney cells (HEK293)], except that DMEM not containing the test sample was used instead of DMEM containing the test sample, and protein in each protein extract was quantified by the Bradford assay.
Western blot analysis was performed on each protein extract using an anti-GLS1 antibody and an anti-β-actin antibody. […] The intensity of color development was quantified using the open-source software 'ImageJ'. The relative value of the GLS1 amount relative to the β-actin amount when each test sample was added was calculated, with the GLS1 amount relative to the β-actin amount in the control set to 1. […]

A further assay has as its system IL-1α. The experiment in a line: IL-1α expression analysis (ELISA) under H2O2. Conditions: HaCaT, 20 µM H2O2, 50 µg/mL to 200 µg/mL, 24 hours; suppression increased as content increased; Fig. 10. In kind it is cell-based, Human. Here is the method:
Human normal epidermal keratinocytes (HaCaT) were cultured in DMEM containing 10% FBS. The cultured cells were collected by trypsin treatment. The collected cells were seeded in a 48-well plate at a cell density of 6 x 10^4 cells/well and cultured for 24 hours in a 37°C, 5% CO2 incubator. After culturing, the cells were precultured for 2 hours in FBS-free DMEM containing the test sample (2'-FL and sucrose) at 50 µg/mL, 100 µg/mL, or 200 µg/mL, or in FBS-free DMEM not containing the test sample. Thereafter, the medium was replaced with FBS-free DMEM containing the test sample at 50 µg/mL, 100 µg/mL, or 200 µg/mL and 20 µM H2O2, or with FBS-free DMEM not containing the test sample but containing 20 µM H2O2, respectively, and after culturing for an additional 24 hours in a 37°C, 5% CO2 incubator, the culture supernatant was collected. The culture supernatant was centrifuged, and the resulting supernatant was used as a sample. […]
Since most IL-1α is released extracellularly, the IL-1α expression level was evaluated by measuring IL-1α in the supernatant medium by ELISA (AuthentiKine™ IL-1 alpha ELISA Kit, manufactured by Proteintech). […] The relative value of the IL-1α amount when each test sample was added was calculated, with the IL-1α amount in the control set to 1.
On the technique in general: In an ELISA, binding on a coated surface is turned into a signal by an enzyme label.

Turning to `C[C@@H]1O[C@@H](O[C@H]2[C@H](O[C@H]3[C@H](O)[C@@H](O)C(O)O[C@@H]3CO)O[C@H](CO)[C@H](O)[C@@H]2O)[C@@H](O)[C@H](O)[C@@H]1O` (stereo partly drawn) [2'-FL, 2'-fucosyllactose], the laminin secretion entry with laminin is “restored laminin secretion”. Besides, the GLS1 expression result in the assay with GLS1 is recorded as “suppressed GLS1 expression”. Moreover, the “H2O2-induced promotion of IL-1α expression” value with IL-1α is “suppressed the H2O2-induced promotion of IL-1 α expression”.
